Assays:
hyperhidrosis [1] = conditions: human, in vivo
[2] = tested on: gustatory sweating associated with diabetic autonomic neuropathy; conditions: in vivo; cited from earlier work
hyperhidrosis [3] = conditions: in vivo; cited from earlier work
[4] = in vivo; cited from earlier work
hyperhidrosis [5] = conditions: in vivo; cited from earlier work; remark: listed apart in the source

Row | Molecule | perspiration associated with the hyperhidrosis (hyperhidrosis [1]) | unwanted perspiration at the location where the glycopyrrolate is applied (hyperhidrosis [1]) | gustatory sweating [2] | duration of reduction of the hyperhidrosis (hyperhidrosis [3]) | side effects (hyperhidrosis [3]) | side effects [4] | benefit in hyperhidrosis (hyperhidrosis [5]) | duration of effect (hyperhidrosis [5])
1 | C[N+]1(C)CCC(OC(=O)C(O)(c2ccccc2)C2CCCC2)C1.[Br-] (centres unmarked) [glycopyrrolate] | reduction in the perspiration | reduces the unwanted perspiration | prevented the gustatory sweating | up to 4 weeks | abdominal discomfort | few side effects | – | –
2 | botulinum A neurotoxin [BOTOX] | – | – | – | – | – | – | statistically significant benefit | several months

From patent US6433003B1 (priority 1999, dated 2002)
